Data from patent EP0674635B1, “QUINUCLIDINE DERIVATIVES AS SQUALENE SYNTHASE INHIBITORS” (Syngenta Limited, priority 1992, dated 1994).

Assays:
[1] = biological target: T1, squalene synthase (Rattus norvegicus, UniProt Q02769); experiment: Inhibition of squalene synthase (formation of squalene from tritiated farnesyl pyrophosphate, rat liver microsomal protein); assay type: biochemical; details: at a concentration of 2.5µM, substrate 20µM
T1 construct: from tissue; host or cells: rat liver microsomes
T1 sequence (Q02769 1-416): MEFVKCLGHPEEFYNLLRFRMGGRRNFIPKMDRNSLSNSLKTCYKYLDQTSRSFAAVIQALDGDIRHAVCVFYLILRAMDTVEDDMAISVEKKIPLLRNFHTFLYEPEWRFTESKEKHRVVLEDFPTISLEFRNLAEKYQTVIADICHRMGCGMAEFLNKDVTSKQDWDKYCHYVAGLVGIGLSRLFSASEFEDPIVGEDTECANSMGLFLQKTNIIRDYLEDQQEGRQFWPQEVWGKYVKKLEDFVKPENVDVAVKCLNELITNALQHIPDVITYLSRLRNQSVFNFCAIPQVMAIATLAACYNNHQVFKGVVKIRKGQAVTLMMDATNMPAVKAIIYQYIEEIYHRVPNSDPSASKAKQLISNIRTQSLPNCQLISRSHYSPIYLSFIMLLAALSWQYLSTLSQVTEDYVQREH
Method: (a) Inhibition of Squalene synthase
In this test, the ability of a compound to prevent the formation of squalene from a radioactive substrate (tritiated farnesyl pyrophosphate) is assessed.
The test compound is incubated at a concentration of 25 micromolar in 200µl of a buffered solution containing potassium phosphate (50mM), MgCl2 (4.95mM), KF (9.9mM), NADPH (0.9mM) and rat liver microsomal protein (20µg). Rat liver microsomes are prepared by the method described in published European Patent Application No. 324,421 and stored in liquid nitrogen prior to assay. Assay vials are kept at 37°C throughout the incubation.
The reaction is started with the addition of the substrate (1-(^3H]-farnesyl pyrophosphate), final concentration 20µM, and stopped after 15 minutes reaction time with the addition of 50µl of 4% KOH. The reaction products are separated from unreacted substrate after application to a C-18 octadecyl 1ccBond column (Analytichem Int product No. 617101). An aqueous fraction is eluted with 250µl of 0.1M KOH. Squalene is then eluted with 1.0 ml 10% ethylacetate in hexane and radioactivity determined. The difference in radioactivity in the presence and absence of the test compound is used to determine the level of inhibition. […] The IC50 can then be determined from a plot of percentage inhibition against concentration of test compound.

[2] = system: de novo hepatic cholesterol synthesis; experiment: Acute rat cholesterol synthesis assay (de novo hepatic cholesterol synthesis from 14C-acetate); assay type: in vivo; details: for ED50: 14C-acetate
Method: (b) Acute rat cholesterol synthesis assay.
This is an acute in vivo test in the rat to measure de novo hepatic cholesterol synthesis from exogenously administered ^14C-acetate.
Female rats (35 - 55 g) are housed in reverse lighting conditions (red light from 0200h - 1400h) for a period of about 2 weeks prior to test. Animals are allowed free access to chow and drinking water throughout this period. At test, animals should weigh 125 - 150 g. Test compounds may be administered by oral gavage, dissolved or suspended in 0.5% polysorbate, or by ip or iv dosing. Control animals receive vehicle alone. After 1 hour the rats are injected ip with 25µCi [2-^14C]-acetate (NEN DUPONT. specific activity, 45-60mCi/mmol NEC-085H, or AMERSHAM specific activity, 50-60mCi/mmol CFA 14) in a volume of 0.25 ml saline (100µCi/ml). After a further hour, rats are terminally anaesthetised with halothane and a blood sample obtained from the abdominal vena cava.
1ml of plasma is lyophilised and then saponified in 2ml ethanolic KOH (1 part 33% KOH, 9 parts ethanol) at 75°C for 2 hours. After addition of an equal quantity of water, non-saponifiable lipids are extracted with two 5ml volumes of hexane. The hexane extracts are evaporated to dryness and the residues dissolved in ethanol to determine cholesterol specific radioactivity. ED50 values can be determined in the standard way.

OC1(c2ccc(-c3ccc4ccccc4n3)cc2)CN2CCC1CC2 (centres unmarked) [Example 3, 3-[4-(2-quinolyl)phenyl)quinuclidin-3-ol]
inhibition at 2.5 µM [1]: ~71% | ED50 [2]: ~14 mg/kg | reduction in the rate of cholesterol biosynthesis ([2]; dose not given): 74%

OC1(c2ccc(-c3nc4ccccc4o3)cc2)CN2CCC1CC2 (centres unmarked) [Example 6, 3-[4-(benzoxazol-2-yl)phenyl]quinuclidin-3-ol]
ED50 [2]: ~4.5 mg/kg

OC1(c2ccc(-c3cnc4ccccc4c3)cc2)CN2CCC1CC2 (centres unmarked) [Example 12, 3-[4-quinol-3-ylphenyl]quinculidin-3-ol]
ED50 [2]: ~3.8 mg/kg
